# Results from ChEMBL document CHEMBL1201862, “PubChem BioAssay data set” (2004).
# Active and inactive are the calls of the source.
# Experiments:
# Vero [1] = experiment: mammalian cell viability reduction – secondary assay, cytotoxicity control for West Nile virus antiviral project, dose response (AID 1650); assay type: functional; conditions: Chlorocebus sabaeus
# [2] = biological target: T1, Ubiquitin-conjugating enzyme E2 N (Homo sapiens, UniProt P61088); assay type: functional;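 further: Dose-response confirmation in a TR-FRET assay detecting UBC13-driven polyubiquitin chain formation, inhibition measured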
# T1 sequence (P61088 whole entry): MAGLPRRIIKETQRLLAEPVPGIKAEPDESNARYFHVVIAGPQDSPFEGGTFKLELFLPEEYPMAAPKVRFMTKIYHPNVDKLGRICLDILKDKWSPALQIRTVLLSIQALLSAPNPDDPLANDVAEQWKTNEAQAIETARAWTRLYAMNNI
# Danio rerio = experiment: In Vivo Angiogenesis Dose-Response Confirmation. [Related pubchem assays: 732 (Assay preceding this confirmatory assay.)]; assay type: functional, organism-based
# [3] = NIH-3T3 fibroblast cytotoxicity, dose response, cytotoxicity control, cell-based, fluorescence, Alamar Blue, secondary assay (AID 2327); assay type: functional;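 further: NIH-3T3 mouse fibroblasts cultured with fluconazole at 8 µg/mL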
# [4] = Luminescence Cell-Based Dose Response HTS to Identify Inhibitors of 5'UTR Stem-Loop Driven Prion Protein mRNA Translation in H4 Neuroglioblastoma Cells. [Related pubchem assays: 1827 (Project Summary), 1813 (Primary HTS)]; assay type: functional
# [5] = alpha-synuclein stem-loop luciferase translation blockers – H4 neuroglioma cells, luminescence, confirmation (AID 1988); assay type: functional, cell-based
# [6] = luciferase reporter signal suppression in cells – H4 neuroglioma cells, luminescence, dose response (AID 1990); assay type: functional, cell-based
# Beta-galactosidase = Beta-galactosidase (Escherichia coli, UniProt Q8VNN2); experiment: detection-enzyme interference by beta-gal modulators – biochemical, E. coli enzyme, set 3, artefact control for CCR6 antagonist project, dose response (AID 504712); assay type: functional
# Sequence of Beta-galactosidase (Q8VNN2 whole entry): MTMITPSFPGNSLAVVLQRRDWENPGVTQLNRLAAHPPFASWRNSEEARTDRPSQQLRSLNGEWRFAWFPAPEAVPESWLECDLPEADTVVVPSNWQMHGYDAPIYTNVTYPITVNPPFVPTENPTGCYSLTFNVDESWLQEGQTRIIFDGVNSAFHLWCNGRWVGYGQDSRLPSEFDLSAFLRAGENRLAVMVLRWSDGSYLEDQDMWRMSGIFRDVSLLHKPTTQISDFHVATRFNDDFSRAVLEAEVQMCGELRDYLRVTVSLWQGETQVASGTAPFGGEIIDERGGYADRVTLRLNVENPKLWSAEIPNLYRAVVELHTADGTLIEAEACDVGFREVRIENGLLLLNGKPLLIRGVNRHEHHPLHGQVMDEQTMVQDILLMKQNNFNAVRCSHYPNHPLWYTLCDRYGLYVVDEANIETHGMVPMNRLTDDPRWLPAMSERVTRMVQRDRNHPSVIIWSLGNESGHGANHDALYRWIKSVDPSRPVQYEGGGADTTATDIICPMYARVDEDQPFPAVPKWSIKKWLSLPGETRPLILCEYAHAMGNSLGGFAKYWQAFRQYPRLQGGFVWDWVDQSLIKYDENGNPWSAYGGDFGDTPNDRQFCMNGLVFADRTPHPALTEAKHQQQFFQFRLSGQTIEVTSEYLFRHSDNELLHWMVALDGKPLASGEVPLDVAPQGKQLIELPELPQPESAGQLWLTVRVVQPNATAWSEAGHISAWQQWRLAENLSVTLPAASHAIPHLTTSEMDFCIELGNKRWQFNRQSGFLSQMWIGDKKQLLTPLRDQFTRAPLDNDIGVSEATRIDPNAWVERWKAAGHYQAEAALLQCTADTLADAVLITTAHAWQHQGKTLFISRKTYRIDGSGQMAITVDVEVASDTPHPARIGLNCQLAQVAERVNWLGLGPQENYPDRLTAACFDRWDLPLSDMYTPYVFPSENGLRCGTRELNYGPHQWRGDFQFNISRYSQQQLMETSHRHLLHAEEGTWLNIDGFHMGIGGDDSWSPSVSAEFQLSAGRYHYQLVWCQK
# [7] = fluconazole-exposed Candida albicans growth modulators – fluorescence, retest, confirmation (AID 2467); assay type: functional, cell-based
# [8] = test system: Streptococcus sp. 'group A'; experiment: Streptococcus pyogenes SK(-)GAS viability under kanamycin – luminescence, BacTiterGlo, confirmation, counter-screen for streptokinase expression inhibitor project, dose response (AID 1900); assay type: functional, organism-based
# Vero [9] = experiment: viability of Vero cells under compound – cytotoxicity control for flavivirus capping enzyme inhibitors (AID 588742); assay type: functional; conditions: Chlorocebus sabaeus
# Streptococcus = experiment: GAS UMAA2166 growth inhibition – luminescence, BacTiterGlo, counter-screen for streptokinase expression inhibitor project, dose response (AID 1915); assay type: functional, organism-based;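 further: potency for reduction of bacterial viability or growth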
# [10] = biological target: Voltage-gated inwardly rectifying potassium channel KCNH2 (Homo sapiens, UniProt Q12809); experiment: concentration-dependent hERG rescue from blockers – cell-based, thallium flux, dose response (AID 2121); assay type: ADME
# [11] = microbe, parasite or virus in culture; assay type: functional; conditions: Mycobacterium tuberculosis
# [12] = biological target: 5-hydroxytryptamine receptor 1A (Homo sapiens, UniProt P08908); assay type: functional
# Sequence of 5-hydroxytryptamine receptor 1A (P08908 whole entry): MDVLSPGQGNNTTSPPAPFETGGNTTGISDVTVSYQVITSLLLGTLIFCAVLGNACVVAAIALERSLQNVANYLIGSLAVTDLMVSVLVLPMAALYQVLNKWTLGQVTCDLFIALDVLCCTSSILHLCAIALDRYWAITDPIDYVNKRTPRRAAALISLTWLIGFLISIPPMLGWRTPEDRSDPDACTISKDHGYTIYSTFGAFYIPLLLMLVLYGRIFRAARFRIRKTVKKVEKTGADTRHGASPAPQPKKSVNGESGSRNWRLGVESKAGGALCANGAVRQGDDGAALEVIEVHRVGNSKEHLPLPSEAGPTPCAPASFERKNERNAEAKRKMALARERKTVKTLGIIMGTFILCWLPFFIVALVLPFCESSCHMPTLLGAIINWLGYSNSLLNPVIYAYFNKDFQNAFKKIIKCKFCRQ
# [13] = Luminescence Cell-Based Dose Response to Identify Activators of 5'UTR Stem-Loop Driven Prion Protein mRNA Translation in H4-C Neuroglioblastoma Cells. [Related pubchem assays: 1829 (Project Summary), 1814 (Primary HTS)]; assay type: functional
# [14] = Luminescence Cell-Based Dose Response to Identify Activators of Luciferase Translation or Activity in H4-C Neuroglioblastoma Cells. [Related pubchem assays: 1829 (Project Summary), 1814 (Primary HTS)]; assay type: functional
# [15] = Luminescence Cell-Based Dose Response HTS to Identify Activators of Luciferase Translation or Activity in H4 […] Cells. [Related pubchem assays: 1829 (Project Summary), 1814 (Primary HTS)]; assay type: functional
# [16] = Luminescence Cell-Based Dose Confirmation to Identify Activators of 5'UTR Stem-Loop Driven Alpha-Synuclein mRNA Translation in H4 Neuroglioblastoma Cells. [Related pubchem assays: 1829 (Project Summary), 1814 (Primary HTS)]; assay type: functional
# H4 = experiment: Luminescence Cell-Based Dose Response HTS to Identify Activators of 5'UTR Stem-Loop Driven Prion Protein mRNA Translation in H4 Neuroglioblastoma Cells. [Related pubchem assays: 1829 (Project Summary), 1814 (Primary HTS)]; assay type: functional; conditions: Homo sapiens
# [17] = Luminescence Cell-Based Dose Confirmation HTS to Identify Activators of 5'UTR Stem-Loop Driven Alpha-Synuclein mRNA Translation in H4 Neuroglioblastoma Cells. [Related pubchem assays: 1829 (Project Summary), 1814 (Primary HTS)]; assay type: functional
# Streptokinase A = biological target: T2, Streptokinase A (Streptococcus pyogenes serotype M1, UniProt P10520); experiment: viability-normalized secreted streptokinase activity reduction – plasminogen activation absorbance, OD405, dose response (AID 1914); assay type: functional, Streptococcus pyogenes M1 GAS;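 further: secreted streptokinase activity via plasminogen activation per viability signal from cell pellet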
# T2 sequence (P10520 whole entry): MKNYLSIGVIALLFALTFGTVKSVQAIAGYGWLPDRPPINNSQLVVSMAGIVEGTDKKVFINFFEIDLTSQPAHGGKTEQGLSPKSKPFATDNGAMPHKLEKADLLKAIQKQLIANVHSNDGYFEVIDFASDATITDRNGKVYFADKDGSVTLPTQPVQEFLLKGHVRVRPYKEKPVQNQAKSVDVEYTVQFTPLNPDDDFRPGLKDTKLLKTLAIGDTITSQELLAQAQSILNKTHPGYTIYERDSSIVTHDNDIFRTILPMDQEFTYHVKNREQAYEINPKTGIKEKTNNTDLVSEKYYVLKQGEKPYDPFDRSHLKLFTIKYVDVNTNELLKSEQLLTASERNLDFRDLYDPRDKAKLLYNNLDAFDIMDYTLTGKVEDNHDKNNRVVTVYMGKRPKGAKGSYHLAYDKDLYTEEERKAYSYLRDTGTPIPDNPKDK
# [18] = biological target: Peroxisome proliferator-activated receptor gamma/Nuclear receptor corepressor 2 (Homo sapiens, UniProt P37231+Q9Y618); experiment: Counterscreen for NR2E3 inverse agonists: TR-FRET-based biochemical high throughput dose response assay to identify inverse agonists of the interaction between peroxisome proliferator-activated receptor gamma (PPARg) and nuclear receptor co-repressor 2 (NCOR2).; assay type: functional
# Sequence of Peroxisome proliferator-activated receptor gamma/Nuclear receptor corepressor 2 (P37231 whole entry): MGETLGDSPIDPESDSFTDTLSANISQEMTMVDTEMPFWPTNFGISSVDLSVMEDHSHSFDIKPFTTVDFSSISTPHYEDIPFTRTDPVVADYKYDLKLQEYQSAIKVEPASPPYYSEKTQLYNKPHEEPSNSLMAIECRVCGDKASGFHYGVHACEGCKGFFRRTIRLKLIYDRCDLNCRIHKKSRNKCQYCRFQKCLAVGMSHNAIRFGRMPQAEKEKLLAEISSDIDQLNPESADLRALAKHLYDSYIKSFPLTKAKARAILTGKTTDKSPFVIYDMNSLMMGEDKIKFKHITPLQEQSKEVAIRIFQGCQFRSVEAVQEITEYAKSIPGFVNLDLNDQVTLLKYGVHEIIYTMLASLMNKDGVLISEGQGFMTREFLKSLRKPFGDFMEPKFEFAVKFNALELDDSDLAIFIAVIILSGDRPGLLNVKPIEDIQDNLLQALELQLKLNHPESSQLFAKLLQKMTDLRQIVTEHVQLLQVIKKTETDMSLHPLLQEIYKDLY
# Sequence of Peroxisome proliferator-activated receptor gamma/Nuclear receptor corepressor 2 (Q9Y618 whole entry): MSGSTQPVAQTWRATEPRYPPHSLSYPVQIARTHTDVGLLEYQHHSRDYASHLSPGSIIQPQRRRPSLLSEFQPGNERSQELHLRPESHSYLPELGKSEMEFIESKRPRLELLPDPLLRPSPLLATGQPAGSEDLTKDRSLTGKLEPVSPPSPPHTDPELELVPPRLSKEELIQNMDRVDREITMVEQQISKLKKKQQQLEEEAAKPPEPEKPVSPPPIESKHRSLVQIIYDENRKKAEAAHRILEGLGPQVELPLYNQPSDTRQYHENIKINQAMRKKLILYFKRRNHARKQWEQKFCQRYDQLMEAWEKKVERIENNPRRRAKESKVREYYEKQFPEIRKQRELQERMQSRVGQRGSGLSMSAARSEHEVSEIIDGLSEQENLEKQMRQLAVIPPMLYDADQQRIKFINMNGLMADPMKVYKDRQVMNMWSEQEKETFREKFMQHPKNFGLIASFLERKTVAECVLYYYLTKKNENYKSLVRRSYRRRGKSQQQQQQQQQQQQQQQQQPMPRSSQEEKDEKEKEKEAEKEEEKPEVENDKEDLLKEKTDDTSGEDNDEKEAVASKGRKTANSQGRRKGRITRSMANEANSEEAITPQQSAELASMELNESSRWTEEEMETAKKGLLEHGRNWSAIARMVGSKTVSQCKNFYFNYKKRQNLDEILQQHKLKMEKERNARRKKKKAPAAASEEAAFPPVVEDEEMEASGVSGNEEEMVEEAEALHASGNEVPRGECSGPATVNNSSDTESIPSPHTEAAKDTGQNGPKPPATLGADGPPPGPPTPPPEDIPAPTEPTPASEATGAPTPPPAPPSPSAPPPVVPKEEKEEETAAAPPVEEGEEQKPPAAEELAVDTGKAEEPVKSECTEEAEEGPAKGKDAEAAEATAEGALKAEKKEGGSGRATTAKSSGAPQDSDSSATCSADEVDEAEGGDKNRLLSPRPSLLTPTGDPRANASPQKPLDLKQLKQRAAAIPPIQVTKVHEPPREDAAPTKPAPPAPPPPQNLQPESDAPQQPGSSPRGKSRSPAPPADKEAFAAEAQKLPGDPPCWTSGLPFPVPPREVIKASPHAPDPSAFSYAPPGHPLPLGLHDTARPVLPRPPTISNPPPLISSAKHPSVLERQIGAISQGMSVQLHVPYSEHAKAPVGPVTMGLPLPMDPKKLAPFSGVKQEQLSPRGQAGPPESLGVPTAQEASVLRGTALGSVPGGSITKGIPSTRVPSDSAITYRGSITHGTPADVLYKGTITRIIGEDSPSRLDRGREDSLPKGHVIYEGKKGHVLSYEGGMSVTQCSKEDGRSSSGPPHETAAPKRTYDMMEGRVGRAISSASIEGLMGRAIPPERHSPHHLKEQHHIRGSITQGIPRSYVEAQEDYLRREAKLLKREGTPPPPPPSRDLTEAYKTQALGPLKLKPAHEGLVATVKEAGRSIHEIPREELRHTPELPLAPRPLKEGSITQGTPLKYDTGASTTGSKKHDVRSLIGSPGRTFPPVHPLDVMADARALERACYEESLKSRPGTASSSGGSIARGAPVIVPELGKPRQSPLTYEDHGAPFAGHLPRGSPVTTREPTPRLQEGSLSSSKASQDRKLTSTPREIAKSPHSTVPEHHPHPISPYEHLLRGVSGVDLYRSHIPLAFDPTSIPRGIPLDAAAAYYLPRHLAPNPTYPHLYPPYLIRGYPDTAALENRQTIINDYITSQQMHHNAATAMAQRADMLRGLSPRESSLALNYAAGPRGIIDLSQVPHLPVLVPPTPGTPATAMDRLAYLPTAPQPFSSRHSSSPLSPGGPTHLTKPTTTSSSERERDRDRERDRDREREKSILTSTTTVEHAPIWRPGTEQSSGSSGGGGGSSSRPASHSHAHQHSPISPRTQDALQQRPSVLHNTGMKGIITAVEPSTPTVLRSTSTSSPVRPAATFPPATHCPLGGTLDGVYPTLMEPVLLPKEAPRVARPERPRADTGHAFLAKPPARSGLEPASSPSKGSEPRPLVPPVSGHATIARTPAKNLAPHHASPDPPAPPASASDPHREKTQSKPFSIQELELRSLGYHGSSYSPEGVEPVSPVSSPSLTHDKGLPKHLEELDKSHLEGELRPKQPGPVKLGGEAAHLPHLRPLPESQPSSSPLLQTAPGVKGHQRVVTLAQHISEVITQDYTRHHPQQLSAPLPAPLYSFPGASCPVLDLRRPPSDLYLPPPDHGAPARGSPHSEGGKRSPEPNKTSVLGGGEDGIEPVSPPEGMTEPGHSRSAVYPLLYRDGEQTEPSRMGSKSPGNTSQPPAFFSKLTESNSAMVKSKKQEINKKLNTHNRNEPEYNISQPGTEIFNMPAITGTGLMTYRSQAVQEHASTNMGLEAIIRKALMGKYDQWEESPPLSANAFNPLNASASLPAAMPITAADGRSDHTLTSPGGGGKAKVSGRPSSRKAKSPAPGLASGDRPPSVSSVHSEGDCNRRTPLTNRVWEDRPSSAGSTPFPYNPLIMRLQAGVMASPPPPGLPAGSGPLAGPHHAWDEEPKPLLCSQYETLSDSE
# [19] = biological target: T3, Voltage-gated N-type calcium channel alpha-1B subunit/Amyloid beta A4 precursor protein-binding family A member 1 (Homo sapiens, UniProt Q00975+Q02410); assay type: protein assay
# [20] = biological target: T4, Photoreceptor-specific nuclear receptor (Homo sapiens, UniProt Q9Y5X4); assay type: functional, cell-based;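 further: CHO-S cells with Gal4-NCOR and VP16-NR2E3 two-hybrid luciferase reporter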
# T4 sequence (Q9Y5X4 whole entry, the tested form may be a part): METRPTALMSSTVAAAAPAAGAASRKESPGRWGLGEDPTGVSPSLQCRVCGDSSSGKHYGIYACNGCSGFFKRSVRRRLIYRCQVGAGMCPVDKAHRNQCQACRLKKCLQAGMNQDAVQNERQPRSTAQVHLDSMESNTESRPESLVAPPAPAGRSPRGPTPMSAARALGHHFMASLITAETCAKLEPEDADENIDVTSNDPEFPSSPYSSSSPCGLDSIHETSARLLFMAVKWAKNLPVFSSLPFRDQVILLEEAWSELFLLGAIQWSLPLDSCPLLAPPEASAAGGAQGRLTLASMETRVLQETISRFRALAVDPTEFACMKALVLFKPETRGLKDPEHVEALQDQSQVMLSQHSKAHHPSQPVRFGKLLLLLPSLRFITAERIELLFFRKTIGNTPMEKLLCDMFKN
# [21] = biological target: T4, Photoreceptor-specific nuclear receptor; experiment: ligands suppressing NR2E3 nuclear receptor activity – biochemical, TR-FRET, dose response (AID 463256); assay type: functional
# [22] = biological target: T3, Voltage-gated N-type calcium channel alpha-1B subunit/Amyloid beta A4 precursor protein-binding family A member 1; assay type: protein assay; remark: listed apart in the source
# [23] = biological target: T5, Small ubiquitin-related modifier 1 (Homo sapiens, UniProt P63165); experiment: SUMO1 protein interaction blockers, potency – biochemical, fluorescence polarization, uHTS hits, dose response (AID 624382); assay type: functional; conditions: read-out: IC50_Mean
# T5 sequence (P63165 whole entry): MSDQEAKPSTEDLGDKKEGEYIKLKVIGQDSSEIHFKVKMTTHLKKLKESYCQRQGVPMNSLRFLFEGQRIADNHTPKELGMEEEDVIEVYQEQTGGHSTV
# [24] = biological target: T5, Small ubiquitin-related modifier 1; experiment: SUMO1 protein-protein binding blockers, potency – biochemical, FRET, dose response (AID 624383); assay type: functional; conditions: read-out: IC50_Mean
smiles,measurement,setting,value
CCCN(CCC)CCCNC(=O)c1cc2c(=O)n(CC)c3ccccc3c2s1,CC50,Vero [1],18.8 µM (active)
same,IC50,[2],> 20 µM (inactive)
Cc1cccc2c1NC(=O)/C2=C1\Nc2ccccc2\C1=N/OCCN1CCNCC1,IC50,Danio rerio,6.32 µM (active)
CCc1ccc(/C=C/C(=O)c2cc(Br)ccc(=O)c2O)cc1,EC50,[3],15.5 µM (inconclusive)
same,EC50,[4],15 µM (active)
same,EC50,[5],15.5 µM (active)
same,EC50,[6],> 120 µM (not active)
same,IC50,Beta-galactosidase,> 66.6 µM (inactive)
same,EC50,[7],1.52 µM (active)
same,EC50,[8],1.8 µM (active)
same,CC50,Vero [9],13.5 µM (active)
same,EC50,Streptococcus,2.6 µM (active)
same,EC50,[10],1.15 µM (active)
same,CC50,[11],11.5 µM (active)
Cc1noc(C)c1COc1ccc(C(=O)OC(C)C(=O)Nc2ccc(N3CCOCC3)cc2)cc1 (stereo not given),EC50,[12],> 50 µM (not active)
COc1ccc(/C=C2\SC(=O)N(CCNC(=O)Cn3cnnn3)C2=O)cc1,EC50,[13],0.533 µM (active)
same,EC50,[14],0.405 µM (active)
same,EC50,[15],33.3 µM (active)
same,EC50,[16],0.926 µM (active)
same,EC50,H4,0.122 µM (active)
same,EC50,[17],2.28 µM (active)
O=C(N/N=C/c1ccccc1F)c1csc2c1CCCC2,EC50,[13],0.264 µM (active)
same,EC50,[14],0.323 µM (active)
same,EC50,[15],< 0.1 µM (inconclusive)
same,EC50,[16],0.227 µM (active)
same,EC50,[17],< 0.1 µM (active)
Cc1ccnc(NC(=S)N2CCN(c3cccc(C(F)(F)F)c3)CC2)c1,EC50,Streptokinase A,> 150 µM (not active)
same,IC50,[18],> 39.9 µM (not active)
same,IC50,[19],11.6 µM (active)
same,EC50,[8],1.66 µM (active)
same,EC50,Streptococcus,22.4 µM (active)
same,IC50,[20],1.76 µM (active)
same,IC50,[21],> 39.9 µM (not active)
same,IC50,[22],> 50 µM (inactive)
CNCCc1c[nH]c2ccccc12,EC50,[12],5.1 µM (active)
Cc1nc2ccc3nc(NC(=O)c4ccco4)sc3c2s1,IC50,[18],4.28 µM (active)
same,IC50,[23],> 66.6 µM (inactive)
same,IC50,[24],12.1 µM (active)
same,IC50,[21],4.28 µM (active)
Cc1ccc2c(c1)/C(=C1/Nc3ccc(Br)cc3/C1=N\O)C(=O)N2,IC50,Danio rerio,2.5 µM (active)
